Two compounds from PMC8710297, “Identification of potent SENP1 inhibitors that inactivate SENP1/JAK2/STAT signaling pathway and overcome platinum drug resistance in ovarian cancer” (Clinical and Translational Medicine, 2021) can be followed below.

This assay addresses T1, SENP1 (Homo sapiens, UniProt Q9P0U3).
T1 sequence (Q9P0U3 1-644): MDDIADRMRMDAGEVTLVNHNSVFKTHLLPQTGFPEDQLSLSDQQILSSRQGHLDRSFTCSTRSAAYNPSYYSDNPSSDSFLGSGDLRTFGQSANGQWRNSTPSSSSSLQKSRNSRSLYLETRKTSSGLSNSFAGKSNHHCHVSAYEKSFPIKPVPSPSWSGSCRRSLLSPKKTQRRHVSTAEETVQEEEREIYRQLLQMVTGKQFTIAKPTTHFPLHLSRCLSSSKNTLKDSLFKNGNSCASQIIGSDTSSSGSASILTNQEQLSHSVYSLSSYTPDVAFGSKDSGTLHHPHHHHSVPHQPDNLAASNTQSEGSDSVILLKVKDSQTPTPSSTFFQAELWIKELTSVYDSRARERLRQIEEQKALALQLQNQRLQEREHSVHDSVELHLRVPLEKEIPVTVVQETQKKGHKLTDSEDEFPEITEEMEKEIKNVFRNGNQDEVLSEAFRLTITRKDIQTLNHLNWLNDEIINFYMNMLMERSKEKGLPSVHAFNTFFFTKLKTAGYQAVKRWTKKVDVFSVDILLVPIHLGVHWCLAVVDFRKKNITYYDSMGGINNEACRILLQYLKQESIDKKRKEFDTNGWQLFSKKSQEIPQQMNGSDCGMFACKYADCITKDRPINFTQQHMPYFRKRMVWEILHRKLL
The experiment in a line: Cellular thermal shift assay. It counts as cell-based. The arrangement: endogenous in cells; host or cells: IGROV1 CR cells. As to conditions: IGROV1 CR cells, 4 h, higher temperatures. Here is the method:
FIGURE 2 UA directly interacts with Sentrin‐specific protease 1 (SENP1). (A) Cellular thermal shift assay to examine the interaction of UA with SENP1. IGROV1 CR cells pretreated with MG132 (10 μM, 1 h) were incubated with DMSO or UA for 4 h before being shifted to indicated temperatures. SENP1 stability was analyzed by using Western blot against SENP1 antibody. Right panel, quantification of non‐denatured SENP1 fraction shown in the left panel. (B) Cell‐free thermal shift assay to examine interactions of UA with SENP1. Purified SENP1 proteins were incubated with DMSO or UA for 4 h before being shifted to the indicated temperatures. SENP1 stability was analyzed by using Western blot against SENP1 antibody. Right panel, quantification of non‐denatured SENP1 fraction shown in the left panel. […] Stability of SENP1(C603A) was analyzed by using Western blot against SENP1 antibody. […] Left; Ultra‐high performance liquid‐chromatography‐MS/MS analyses of associated UA in indicated samples, right; quantification of data shown in left (the binding affinity of UA with SENP1‐C603A was normalized as 1). […]
FIGURE 3 Identification of UAMMC9 from UA derivatives. […] Stability of SENP1(C603A) was analyzed by using Western blot against SENP1 antibody. […]
The qu anti ficatio n of immunohistochemical sta in ing wa s scored blindly at lea st by two […]

In the case of `C[C@H]1[C@H](C)CC[C@]2(C(=O)NCC(=O)N(C)CCO)CC[C@]3(C)C(=CC[C@@H]4[C@@]5(C)CC[C@H](O)C(C)(C)[C@@H]5CC[C@]43C)[C@H]12` [UAMMC9], the “thermal stabilization of SENP1 in cells” value is “directly interacted with SENP1”. For `C[C@H]1[C@H](C)CC[C@]2(C(=O)O)CC[C@]3(C)C(=CC[C@@H]4[C@@]5(C)CC[C@H](O)C(C)(C)[C@@H]5CC[C@]43C)[C@H]12` [UA, ursolic acid, reference compound] the value was “stabilized”.
